The test system of data set [1] is 109QmHtt. Nature of the data set: Filter trap assay of aggregated 109QmHtt in Neuro2a cells. Type of data set: cell-based. On the procedure:
(§1) FIG. 4. Testing the ability of therapeutic peptides to decrease mHtt aggregation in Neuro2a cells overexpressing mHtt. Panel A: Filter trap assays and corresponding quantitation of cells (panel B) treated as indicated at 8 hours (T1), 24 hours (T2), or both (T1+2) after transfection with the 109QmHtt construct. […] Panel C: Western blots and quantitation (panel D) of RIPA-soluble (sol) and -insoluble (ins) fractions of Neuro2a cells overexpressing 25QHtt or 109QmHtt and treated as indicated. […] Panel E: Western blot of the 109QmHtt in cells treated as indicated. Note that MG132 blocked the effect of 8R10Q peptide with respect to decreasing insoluble 109QmHtt. Panel F: Quantitation of ratio of 109QmHtt in cells treated MG132 (+) over DMSO (−) in relationship to peptides. Statistical analysis conducted with one way ANOVA, *<0.05, **<0.01, ***<0.001, ns: not significant.
Whether the peptides could modulate the aggregation propensity of mHtt was next investigated.

Data set [2] relates to 109QmHtt. Nature of the data set: Western blot of RIPA-soluble and -insoluble fractions of Neuro2a lysates. Type of data set: cell-based. The conditions noted are these: peptide-treated samples. How it is done:
as §1
For further characterization, Neuro2a lysates were separated into the RIPA-soluble (sol) and insoluble (ins) fractions ([…]). 8R10Q peptide decreased the level of mHtt in both the soluble and insoluble fractions as compared with water, 8R, or the scrambled (s8R10Q) control (FIG. 4, panel D). […]
(Immunoblotting shows a protein as a band on a membrane.)

Data set [3] relates to Neuro2a cells expressing 109QmHtt. Description: Cell growth curve of Neuro2a cells expressing 109QmHtt. The settings on record: 109QmHtt with or without 12.5 μM H2O2; vs 8R or scrambled control. Type of data set: cell-based, mouse. On the procedure:
FIG. 5. Therapeutic effect of 8R10Q and 8R15Q in 109QmHtt-expressing cells. Panel A: Cell viability assay by MTT in Neuro2a cells expressing 25QHtt (left) or 109QmHtt (right) treated with H2O2 at 50 μM and the indicated peptide. Panel B: Cell growth curve of Neuro2a cells expressing 25QHtt or 109QmHtt treated with indicated peptide. The cells in right subpanel were further treated with H2O2 at 12.5 μM 16 hours after transfection. 109QmHtt cells growth was slower than that of the 25QHtt cells. 8R10Q treatment rescued the slow growth of Neuro2a cells by 109QmHtt with or without H2O2. Panel C: Micrographs of the phase contrast and fluorescent images of retinoic acid-differentiated Neu2a cells expressing GFP-25QHtt or GFP-109QmHtt (GFP) treated with the indicated peptide. Note the neurites of the differentiated cells. Panel D: Quantitation of the percentage of differentiated cells with neurites. Fewer 109QmHtt-expressing cells had neurites vs. 25QHtt-expressing cells. […] The experiments were conducted in triplicate and repeated twice. Statistical analysis was performed with one way ANOVA, *p<0.05; **p<0.01; ***p<0.001, ns: not significant.
The expression of 109QmHtt reduced the growth of Neuro2a cells, and so did the lower levels of H2O2 (12.5 μM) (FIG. 5, panel B).

Data set [4] concerns R6/2 transgenic mice. Description: Therapeutic effect in R6/2 transgenic mice (function, blood sugar, lifespan). Type of data set: in vivo, mouse. The text has this:
FIG. 6. 8R10Q ameliorated functional deterioration of R6/2 transgenic mice. Panel A: Longitudinal rotarod performance of wild type (WT) and R6/2 mice treated with PBS or 8R10Q peptide. Note the significant delay in motor deterioration of R6/2 mice treated with 8R10Q from 11 weeks of age. Panel B: T maze test of WT and R6/2 mice at 13 weeks of age. […] Panel C: The curves of blood sugar in serum of WT and R6/2 mice treated as indicated. […] Panel D: Lifespan of WT and R6/2 mice treated with PBS vs. 8R10Q. 100% of R6/2 mice died before 16 weeks of age. […] WT mice N=6/group; R6/2 mice N=10/group; statistical analysis performed with two way ANOVA (panels A and C), one way ANOVA (panel B), *p<0.05; **p<0.01; ***p<0.001, ns: not significant, and log-rank (Mantel-Cox) Test (D), ***p<0.0001.
To test the therapeutic effect of the peptide in vivo, the 8R10Q peptide was delivered 6 days/week into the wild type (WT) or R6/2 transgenic mice through intranasal aspiration or continuously with the Alzet osmotic minipumps into the neostriatum. […] In fact, the 8R10Q-treated R6/2 mice performed even better than the 11 week-old PBS-treated mice on average. […] The R6/2 mice were previously reported to have diabetes. Bjorkqvist et al., Hum Mol Genet (2005) 14:565-74; and Hunt et al., Experimental Brain Res (2005) 166:220-9. […] To sum up, the 8R10Q peptide effectively delayed the onset of disease and ameliorated the pathological phenotypes.

In the case of “H-RRRRRRRRWDQQQQQQQQQQ-NH2 [Peptide 8R10Q, NH2-(R)8-W-D-(Q)10-CONH2]”, the “aggregated 109QmHtt by filter trap assay” value is “significantly reduced” in data set [1] (20 μM peptide added at 8 hours (T1) or 8 plus 24 hours (T1+T2) after transfection, vs water or 8R) and “no obvious effects” in data set [1] (peptide added at 24 hours alone). In addition, the “ratio of the MG132:DMSO 109QmHtt” value in data set [2] is “much higher”. Further, in data set [3], the cell growth entry is “ameliorated the reduction in growth”. The “T maze test memory” value in data set [4] (13 week-old R6/2 mice, intranasal) was “corrected the memory deficit”. In addition, in data set [4] (Alzet osmotic minipumps into the neostriatum), the “rotarod therapeutic effect, intracerebral delivery” value is “very similar therapeutic effect to that given intranasally”. In addition, the “diabetic phenotype, inflammatory index and abnormal liver function” value in data set [4] (R6/2 mice) is reported as “decreased”. Further, the diabetes phenotype entry in data set [4] (R6/2 mice, intracerebral) was “significantly corrected the diabetes phenotype”. In addition, the blood sugar entry in data set [4] (R6/2 mice, intranasal) is “delayed the rise and decreased the level of blood sugar”. Moreover, the “prevention of premature death” value in data set [4] (R6/2 mice, intranasal, at 16 weeks of age) is given as 41%. Further, the “age until which motor deterioration (rotarod) was delayed” value in data set [4] (R6/2 mice, intranasal, deterioration significant from 11 weeks with PBS) was found to be 13 weeks. For the same substance, the body weights result in data set [4] (WT or R6/2 mice, intranasal or intracerebral route) is on record as “remained comparable to those treated with PBS”.

Values taken from patent US12590130B2, “Bipartite molecules and uses thereof in treating diseases associated with abnormal protein aggregates” (ACADEMIA SINICA, priority 2014, dated 2026).
